Like-named read-outs stand apart in the source and are kept apart here.
Columns and labels:
[1] = tested on: SKNFI neuroblastoma cells (WT); assay: xCELLigence in vitro growth inhibition (IC50); format: cell-based; conditions: Homo sapiens, SK-N-FI, 72 hours, single agent
Method: (§1) In vitro inhibitory activity was determined in five (5) neuroblastoma cell lines with a 96-well Real-Time Cell Electronic Sensing xCELLigence system (ACEA, San Diego, Calif.) which measures a “cell index”. Cell index is derived from alterations in electrical impedance as cells interact with the biocompatible microelectrode surface in each well to measure substrate adherent proliferation. Depending on the growth kinetics, the following cell densities were plated per well: NB1643: 20,000; SHSY5Y: 6,000; SKBE2C:10,000; NBEBC1: 11,000; NB1691: 30,000. After 24 hours, the plated cells were treated in triplicate with the test compound, each dose as indicated or with DMSO vehicle control. […] At 72 hours after drug exposure, the cell index was recorded.
(§2) The IC50 was calculated using GraphPad Prism 5.0 four parameter variable slope fitting.

[2] = tested on: NBEBC1 neuroblastoma cells (WT); assay: xCELLigence in vitro growth inhibition and Chou-Talalay combination index; format: cell-based; conditions: Homo sapiens, Neuroblastoma cell, single agent
[3] = tested on: human neuroblastoma SH-SY5Y (F1174L ALK mutation) xenografts; conditions: CB17 SCID mice; A1 50 mg/kg, B 250 mg/kg reduced to 187.5 mg/kg on day 5; p.o. gavage
Method: Enhancement of efficacy studies were conducted in vivo on CB17 SCID mice against human neuroblastoma SH-SY5Y (bearing an F1174L ALK mutation) xenografts.
CB17 scid female mice (Taconic Farms) were used to propagate subcutaneously implanted neuroblastoma tumors. Tumor diameters were measured twice per week with electronic calipers, and tumor volumes were calculated with the spheroid formula, (p/6)×d3, where d represents mean diameter. […] Mice were euthanized when tumor volume exceeded 3000 mm^3 or at the study conclusion at 7 weeks. A mixed-effects linear model was used to assess tumor volume over time between treatment and vehicle groups, controlling for tumor size at enrollment. Event-free survival probabilities were estimated using the Kaplan-Meier method and survival curves were compared using the log-rank test (SAS 9.3 and Stata 12.1). An event was defined as time to tumor volume ≧3000 mm^3, and tumor volumes after week 7 were censored. Mice were maintained under protocols and conditions approved by our institutional animal care and use committee.

[4] = tested on: NB1643 neuroblastoma cells (R1275Q); assay: xCELLigence in vitro growth inhibition and Chou-Talalay combination index; conditions: for IC50: Homo sapiens; for Dose Reduction Index (DRI, from calculations) / Drug alone dose giving Fa (calculated) / Dose Reduction Index (DRI) / Drug alone dose giving Fa: NB1643; for Dose Reduction Index (DRI, from calculations) / Drug alone dose giving Fa (calculated): Table 7; for Dose Reduction Index (DRI): A1 and B co-treatment
Method: The concentration dependence of the anti-proliferation effect for both combination partners, first alone and then in combination were measured using the xCELLigence system. CI for each of the treatments was computed by CalcuSyn v2 software (Biosoft, MO).
In vitro inhibitory activity was determined in five (5) neuroblastoma cell lines with a 96-well Real-Time Cell Electronic Sensing xCELLigence system (ACEA, San Diego, Calif.) which measures a “cell index”. Cell index is derived from alterations in electrical impedance as cells interact with the biocompatible microelectrode surface in each well to measure substrate adherent proliferation. […] After 24 hours, the plated cells were treated in triplicate with the test compound, each dose as indicated or with DMSO vehicle control. […] At 72 hours after drug exposure, the cell index was recorded.
The IC50 was calculated using GraphPad Prism 5.0 four parameter variable slope fitting. These values were used in dosing of the combination study which follows.
(§3) Drug combination effects and quantification of synergy were determined using the Chou-Talalay combination index method (Trends Pharmacol Sci 4, 450-454) and CalcuSyn v2 software (Biosoft, MO) in four neuroblastoma cell lines. Cells were plated and in vitro proliferation was measured using the xCELLigence system as described above.
(§4) The anti-proliferation potency of each individual agent was estimated by the median-effect dose, Dm. […] Fa=0 is determined based on DMSO control by the dose, and Fa=1 is a full response (no viable cells left) and. • Fu: fraction unaffected by dose where fu=1−fa.
The effect of combination drug effects was determined utilizing the combination index (CI) as defined by Chou according to the following equation:
where (Dx)1 and (Dx)2 are the concentrations of compounds D1 and D2 needed to produce a given level of anti-proliferative effect when used individually, whereas (D)1 and (O)2 are their concentrations that produce the same anti-proliferative effect when used in combination. The combination index is a quantitative measure of drug interaction defined as an additive effect (CI=1), antagonism (CI>1), or synergy (CI<1). Typically, a CI range, as used herein, is used to assess synergy. A combination index of 0.9-1.1 indicates additive interaction, values below 0.9 indicate synergism, and values over 1.1 indicate antagonism. The follow is a description of the CI ranges: • <0.1+++++ Very strong synergism • 0.1-0.3++++ Strong synergism • 0.3-0.7+++ Synergism • 0.7-0.85++ Moderate synergism • 0.85-0.90+ Slight synergism • 0.90-1.10± Nearly additive • 1.10-1.20− Slight antagonism • 1.20-1.45−− Moderate antagonism
The combination index was used to assess the Dose-Reduction Index (DRI) (Chou and Chou, 1988), where:
CI=(D)1/(Dx)1+(D)2/Dx)2=1/(DRI)1+1/(DRI)2
The DRI estimates how much the dose of each drug can be reduced when synergistic drugs are given in combination, while still achieving the same effect size as each drug administered individually.

[5] = tested on: SKBE2C neuroblastoma cells (WT); assay: xCELLigence in vitro growth inhibition (IC50, Dm); format: cell-based; conditions: Homo sapiens, Neuroblastoma cell, single agent
Method: as §1, §2, §3, §4

[6] = tested on: SKNAS neuroblastoma cells (WT); assay: xCELLigence in vitro growth inhibition (IC50); format: cell-based; conditions: Homo sapiens, SK-N-AS, 72 hours, single agent
Method: as §1, §2

[7] = tested on: SHSY5Y neuroblastoma cells (F1174L); assay: xCELLigence in vitro growth inhibition and Chou-Talalay combination index; format: cell-based; conditions: Homo sapiens, SH-SY5Y, single agent
[8] = tested on: NB1691 neuroblastoma cells (WT); assay: as above; format: cell-based; conditions: Homo sapiens
[9] = read-out: Dm (median-effect dose)
[10] = NB-1643, read-out: Dm (median-effect dose)
[11] = Fa 0.51, Table 6, from experimental values
[12] = Fa 0.75, Table 6, from experimental values
[13] = Fa 0.83, Table 6, from experimental values
[14] = Fa 0.9, first of two Fa 0.9 lines, Table 6
[15] = Fa 0.9, second of two Fa 0.9 lines, Table 6
[16] = NB-1691, 72 hours, single agent, read-out: IC50
[17] = NB-1691, single agent, read-out: Dm (median-effect dose)

## Cc1cc(Nc2ncc(Cl)c(Nc3ccccc3S(=O)(=O)C(C)C)n2)c(OC(C)C)cc1C1CCNCC1 [Compound A1, 5-chloro-N2-(2-isopropoxy-5-methyl-4-(piperidin-4-yl)phenyl)-N4-[2-(propane-2-sulfonyl)-phenyl]-pyrimidine-2,4-diamine]
[1]
  IC50: 3480 nM
[2]; 72 hours, read-out: IC50
  IC50: 1920 nM
[2]; [9]
  IC50: 1660 nM
[3]
  Survival of the mice / deaths: euthanized due to the size of their tumor
  Tumor volume / tumor growth: only a slight tumor growth delay compared to vehicle control
[4]; NB-1643, 72 h
  IC50: 222 nM
[4]; [10]
  IC50: 173 nM
[4]; Fa 0.020
  Dose Reduction Index (DRI, from calculations): 3.099
  Drug alone dose giving Fa (calculated): 0.0007501 µM
[4]; Fa 0.050
  Dose Reduction Index (DRI, from calculations): 3.455
  Drug alone dose giving Fa (calculated): 0.0028193 µM
[4]; Fa 0.100
  Dose Reduction Index (DRI, from calculations): 3.764
  Drug alone dose giving Fa (calculated): 0.0080106 µM
[4]; Fa 0.150
  Dose Reduction Index (DRI, from calculations): 3.969
  Drug alone dose giving Fa (calculated): 0.015292 µM
[4]; Fa 0.200
  Dose Reduction Index (DRI, from calculations): 4.130
  Drug alone dose giving Fa (calculated): 0.0248814 µM
[4]; Fa 0.250
  Dose Reduction Index (DRI, from calculations): 4.269
  Drug alone dose giving Fa (calculated): 0.0371953 µM
[4]; Fa 0.300
  Dose Reduction Index (DRI, from calculations): 4.394
  Drug alone dose giving Fa (calculated): 0.0528478 µM
[4]; Fa 0.350
  Dose Reduction Index (DRI, from calculations): 4.510
  Drug alone dose giving Fa (calculated): 0.0727063 µM
[4]; Fa 0.400
  Dose Reduction Index (DRI, from calculations): 4.622
  Drug alone dose giving Fa (calculated): 0.0979951 µM
[4]; Fa 0.450
  Dose Reduction Index (DRI, from calculations): 4.732
  Drug alone dose giving Fa (calculated): 0.130469 µM
[4]; Fa 0.500
  Dose Reduction Index (DRI, from calculations): 4.842
  Drug alone dose giving Fa (calculated): 0.1727061 µM
[4]; [11]
  Dose Reduction Index (DRI): 3.321
  Drug alone dose giving Fa: 0.1826374 µM
[4]; Fa 0.550
  Dose Reduction Index (DRI, from calculations): 4.954
  Drug alone dose giving Fa (calculated): 0.2286167 µM
[4]; Fa 0.600
  Dose Reduction Index (DRI, from calculations): 5.072
  Drug alone dose giving Fa (calculated): 0.3043766 µM
[4]; Fa 0.650
  Dose Reduction Index (DRI, from calculations): 5.198
  Drug alone dose giving Fa (calculated): 0.4102451 µM
[4]; Fa 0.700
  Dose Reduction Index (DRI, from calculations): 5.336
  Drug alone dose giving Fa (calculated): 0.564402 µM
[4]; [12]
  Dose Reduction Index (DRI): 7.224
  Drug alone dose giving Fa: 0.8019141 µM
[4]; Fa 0.750
  Dose Reduction Index (DRI, from calculations): 5.492
  Drug alone dose giving Fa (calculated): 0.8019141 µM
[4]; Fa 0.800
  Dose Reduction Index (DRI, from calculations): 5.676
  Drug alone dose giving Fa (calculated): 1.1987842 µM
[4]; [13]
  Dose Reduction Index (DRI): 7.135
  Drug alone dose giving Fa: 1.5839055 µM
[4]; Fa 0.850
  Dose Reduction Index (DRI, from calculations): 5.907
  Drug alone dose giving Fa (calculated): 1.9505238 µM
[4]; [14]
  Dose Reduction Index (DRI): 8.386
  Drug alone dose giving Fa: 3.7234705 µM
[4]; [15]
  Dose Reduction Index (DRI): 4.193
  Drug alone dose giving Fa: 3.7234705 µM
[4]; Fa 0.900
  Dose Reduction Index (DRI, from calculations): 6.229
  Drug alone dose giving Fa (calculated): 3.7234705 µM
[4]; Fa 0.950
  Dose Reduction Index (DRI, from calculations): 6.786
  Drug alone dose giving Fa (calculated): 10.58 µM
[4]; Fa 0.990
  Dose Reduction Index (DRI, from calculations): 8.200
  Drug alone dose giving Fa (calculated): 106.3 µM
[5]; 72 hours, read-out: IC50
  IC50: 603 nM
[5]; [9]
  IC50: 350 nM
[6]
  IC50: 2150 nM
[7]; 72 hours, read-out: IC50
  IC50: 963 nM
[7]; [9]
  IC50: 1500 nM
[8]; [16]
  IC50: 1930 nM
[8]; [17]
  IC50: 762 nM

## CN(C)C(=O)c1cc2cnc(Nc3ccc(N4CCNCC4)cn3)nc2n1C1CCCC1 [Compound B, 7-cyclopentyl-N,N-dimethyl-2-((5-(piperazin-1-yl)pyridin-2-yl)amino)-7H-pyrrolo[2,3-d]pyrimidine-6-carboxamide]
[1]; unit in cell
  IC50: > 6000 nM
[2]; 72 hours, read-out: IC50
  IC50: 328 nM
[2]; [9]
  IC50: 1260 nM
[3]
  Survival of the mice / deaths: one of the mice died on day 14
  Tumor volume / tumor growth: slower tumor growth
[4]; NB-1643, 72 h
  IC50: 750 nM
[4]; [10]
  IC50: 788 nM
[4]; Fa 0.020
  Drug alone dose giving Fa (calculated): 0.0013507 µM
[4]; Fa 0.050
  Drug alone dose giving Fa (calculated): 0.0063668 µM
[4]; Fa 0.100
  Drug alone dose giving Fa (calculated): 0.021628 µM
[4]; Fa 0.150
  Drug alone dose giving Fa (calculated): 0.0461139 µM
[4]; Fa 0.200
  Drug alone dose giving Fa (calculated): 0.0815448 µM
[4]; Fa 0.250
  Drug alone dose giving Fa (calculated): 0.1305781 µM
[4]; Fa 0.300
  Drug alone dose giving Fa (calculated): 0.1970133 µM
[4]; Fa 0.350
  Drug alone dose giving Fa (calculated): 0.2862422 µM
[4]; Fa 0.400
  Drug alone dose giving Fa (calculated): 0.4060079 µM
[4]; Fa 0.450
  Drug alone dose giving Fa (calculated): 0.5676688 µM
[4]; Fa 0.500
  Drug alone dose giving Fa (calculated): 0.78836 µM
[4]; [11]
  Drug alone dose giving Fa: 0.8417031 µM
[4]; Fa 0.550
  Drug alone dose giving Fa (calculated): 1.0948487 µM
[4]; Fa 0.600
  Drug alone dose giving Fa (calculated): 1.5307866 µM
[4]; Fa 0.650
  Drug alone dose giving Fa (calculated): 2.1712783 µM
[4]; Fa 0.700
  Drug alone dose giving Fa (calculated): 3.1546674 µM
[4]; [12]
  Drug alone dose giving Fa: 4.7596923 µM
[4]; Fa 0.750
  Drug alone dose giving Fa (calculated): 4.7596923 µM
[4]; Fa 0.800
  Drug alone dose giving Fa (calculated): 7.6217203 µM
[4]; [13]
  Drug alone dose giving Fa: 10.56 µM
[4]; Fa 0.850
  Drug alone dose giving Fa (calculated): 13.48 µM
[4]; [14]
  Drug alone dose giving Fa: 28.74 µM
[4]; [15]
  Drug alone dose giving Fa: 28.74 µM
[4]; Fa 0.900
  Drug alone dose giving Fa (calculated): 28.74 µM
[4]; Fa 0.950
  Drug alone dose giving Fa (calculated): 97.62 µM
[4]; Fa 0.990
  Drug alone dose giving Fa (calculated): 1455 µM
[5]; 72 hours, read-out: IC50
  IC50: 146 nM
[5]; [9]
  IC50: 446 nM
[6]
  IC50: 4720 nM
[7]; 72 hours, read-out: IC50
  IC50: 111 nM
[7]; [9]
  IC50: 1500 nM
[8]; [16]
  IC50: 315 nM
[8]; [17]
  IC50: 2650 nM
